Reference: patent US10670605B2, “Cysteine reactive probes and uses thereof” (The Scripps Research Institute, priority 2015, dated 2020)

Assays:
Test in all cases: Competitive isoTOP-ABPP in situ (fragment-treated cells)
Format in all cases: cell-based
[1] = biological target: T1, cysteines in MDA-MB-231 and Ramos cells (Homo sapiens, UniProt Q99497); settings: for isoTOP-ABPP ratio Q99497_C106: 200 μM, insitu
T1 sequence (Q99497 1-189): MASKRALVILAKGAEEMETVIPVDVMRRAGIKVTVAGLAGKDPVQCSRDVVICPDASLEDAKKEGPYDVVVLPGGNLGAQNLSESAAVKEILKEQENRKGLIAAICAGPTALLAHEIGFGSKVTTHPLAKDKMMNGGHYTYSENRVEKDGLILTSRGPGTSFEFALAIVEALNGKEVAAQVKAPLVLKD

[2] = biological target: T2, cysteines in MDA-MB-231 and Ramos cells (Homo sapiens, UniProt Q13428); settings: for isoTOP-ABPP ratio Q13428_C38 / isoTOP-ABPP ratio Q13428_C1298: 200 μM, insitu, 231
T2 sequence (Q13428 1-1488): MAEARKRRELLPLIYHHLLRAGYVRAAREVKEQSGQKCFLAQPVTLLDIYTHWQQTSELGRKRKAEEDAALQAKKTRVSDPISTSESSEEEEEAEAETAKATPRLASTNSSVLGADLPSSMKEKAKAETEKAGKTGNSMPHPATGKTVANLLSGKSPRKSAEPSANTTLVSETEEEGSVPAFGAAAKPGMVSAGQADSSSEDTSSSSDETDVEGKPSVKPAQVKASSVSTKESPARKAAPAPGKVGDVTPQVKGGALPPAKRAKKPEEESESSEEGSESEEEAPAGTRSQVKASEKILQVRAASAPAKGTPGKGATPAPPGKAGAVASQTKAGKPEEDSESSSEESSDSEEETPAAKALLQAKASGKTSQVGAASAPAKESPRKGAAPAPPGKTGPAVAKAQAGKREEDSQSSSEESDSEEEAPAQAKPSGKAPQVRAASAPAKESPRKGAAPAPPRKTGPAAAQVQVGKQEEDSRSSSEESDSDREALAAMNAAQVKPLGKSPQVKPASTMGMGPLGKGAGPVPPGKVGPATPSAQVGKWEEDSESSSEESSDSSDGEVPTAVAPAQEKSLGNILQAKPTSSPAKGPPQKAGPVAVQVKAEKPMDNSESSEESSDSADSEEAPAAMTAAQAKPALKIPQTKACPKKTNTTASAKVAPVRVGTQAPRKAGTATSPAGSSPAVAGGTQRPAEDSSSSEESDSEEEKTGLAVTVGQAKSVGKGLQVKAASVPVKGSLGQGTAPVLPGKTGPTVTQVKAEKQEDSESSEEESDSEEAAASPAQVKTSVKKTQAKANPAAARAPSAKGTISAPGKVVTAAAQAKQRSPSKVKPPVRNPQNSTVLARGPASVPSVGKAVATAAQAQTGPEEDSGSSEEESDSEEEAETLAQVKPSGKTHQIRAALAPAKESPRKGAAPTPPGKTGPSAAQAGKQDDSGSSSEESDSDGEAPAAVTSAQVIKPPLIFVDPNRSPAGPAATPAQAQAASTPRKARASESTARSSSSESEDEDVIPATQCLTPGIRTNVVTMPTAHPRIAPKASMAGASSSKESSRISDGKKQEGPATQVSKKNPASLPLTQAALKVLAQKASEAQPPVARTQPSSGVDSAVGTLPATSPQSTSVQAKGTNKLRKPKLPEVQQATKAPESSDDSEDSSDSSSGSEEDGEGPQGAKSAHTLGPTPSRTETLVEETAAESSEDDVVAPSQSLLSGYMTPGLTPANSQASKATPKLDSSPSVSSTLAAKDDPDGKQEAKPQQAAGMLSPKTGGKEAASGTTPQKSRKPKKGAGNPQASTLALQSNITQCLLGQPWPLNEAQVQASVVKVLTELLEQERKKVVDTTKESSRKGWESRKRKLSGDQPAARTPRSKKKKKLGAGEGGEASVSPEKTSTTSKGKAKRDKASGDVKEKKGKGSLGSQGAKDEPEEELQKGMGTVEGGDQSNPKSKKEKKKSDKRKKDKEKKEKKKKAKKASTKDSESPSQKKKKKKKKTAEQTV

[3] = biological target: T3, cysteines in MDA-MB-231 and Ramos cells (Homo sapiens, UniProt P78417); settings: for isoTOP-ABPP ratio P78417_C32: 200 μM, insitu
T3 sequence (P78417 1-241): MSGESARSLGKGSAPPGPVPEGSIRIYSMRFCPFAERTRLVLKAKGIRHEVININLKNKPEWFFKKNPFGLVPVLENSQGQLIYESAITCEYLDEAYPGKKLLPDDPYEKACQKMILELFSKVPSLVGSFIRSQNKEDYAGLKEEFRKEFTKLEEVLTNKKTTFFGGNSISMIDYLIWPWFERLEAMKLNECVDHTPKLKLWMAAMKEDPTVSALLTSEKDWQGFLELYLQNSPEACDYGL

[4] = biological target: T4, cysteines in MDA-MB-231 and Ramos cells (Homo sapiens, UniProt Q86SX6)
T4 sequence (Q86SX6 32-157): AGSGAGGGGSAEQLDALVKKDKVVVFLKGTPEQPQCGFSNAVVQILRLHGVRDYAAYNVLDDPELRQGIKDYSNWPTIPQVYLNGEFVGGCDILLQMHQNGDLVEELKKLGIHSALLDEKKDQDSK

[5] = biological target: T5, cysteines in MDA-MB-231 and Ramos cells (Homo sapiens, UniProt Q9UMS0); settings: for isoTOP-ABPP ratio Q9UMS0_C213: 200 μM, insitu, 231
T5 sequence (Q9UMS0 10-254): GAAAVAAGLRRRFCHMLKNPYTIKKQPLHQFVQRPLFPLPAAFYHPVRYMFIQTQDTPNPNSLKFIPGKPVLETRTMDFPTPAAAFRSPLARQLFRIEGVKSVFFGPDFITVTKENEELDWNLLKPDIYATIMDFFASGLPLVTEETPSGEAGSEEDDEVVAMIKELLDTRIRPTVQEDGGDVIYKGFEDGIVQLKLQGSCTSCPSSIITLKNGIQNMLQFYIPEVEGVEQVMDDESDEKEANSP

COc1ccccc1OCCNC(=O)CCl [compound 28]
isoTOP-ABPP ratio Q99497_C106 [1]; 231: 1.0 | isoTOP-ABPP ratio Q13428_C38 [2]: 1.0 | isoTOP-ABPP ratio Q13428_C1298 [2]: 0.9 | isoTOP-ABPP ratio P78417_C32 [3]; 231: 20.0

Cc1ccc(C=C(C#N)C(=O)NCCN2CCOCC2)cc1 [compound 41]
isoTOP-ABPP ratio Q99497_C106 [1]; 231: 0.6 | isoTOP-ABPP ratio Q13428_C38 [2]: 1.1 | isoTOP-ABPP ratio Q13428_C1298 [2]: 1.0 | isoTOP-ABPP ratio Q86SX6_C67 ([4]; 200 μM, insitu, 231): 1.0 | isoTOP-ABPP ratio Q9UMS0_C213 [5]: 0.9 | isoTOP-ABPP ratio P78417_C32 [3]; 231: 0.3

O=C(CCl)NC(=O)NC12CC3CC(CC(C3)C1)C2 [compound 12]
isoTOP-ABPP ratio Q99497_C106 [1]; 231: 3.0 | isoTOP-ABPP ratio Q13428_C38 [2]: 4.7 | isoTOP-ABPP ratio Q13428_C1298 [2]: 20.0 | isoTOP-ABPP ratio Q86SX6_C67 ([4]; 200 μM, insitu, 231): 1.6 | isoTOP-ABPP ratio Q9UMS0_C213 [5]: 20.0 | isoTOP-ABPP ratio P78417_C32 [3]; 231: 20.0

O=C(CCl)NCCc1c[nH]c2ccccc12 [compound 13]
isoTOP-ABPP ratio Q99497_C106 ([1]; ramos): 3.3 | isoTOP-ABPP ratio Q13428_C38 [2]: 1.6 | isoTOP-ABPP ratio Q86SX6_C67 ([4]; 200 μM, insitu, 231): 10.3 | isoTOP-ABPP ratio Q86SX6_C67 ([4]; 200 μM, insitu, ramos): 12.4 | isoTOP-ABPP ratio Q9UMS0_C213 [5]: 1.6 | isoTOP-ABPP ratio P78417_C32 [3]; 231: 20.0 | isoTOP-ABPP ratio P78417_C32 ([3]; ramos): 20.0

O=C(CCl)N1CCC(Cc2ccccc2)CC1 [compound 9]
isoTOP-ABPP reactivity Q865X6_C67 GLRX5 ([4]; 200 μM, insitu, 231): 5.1

COc1ccc(C2CC(c3cccs3)=NN2C(=O)CCl)cc1 (stereo not drawn) [compound 4]
isoTOP-ABPP reactivity Q99497_C106 PARK7 ([1]; 100 μM in situ 231): 0.9 | isoTOP-ABPP reactivity Q13428_C38 TCOF1 ([2]; 100 μM in situ 231): 2.8 | isoTOP-ABPP reactivity Q13428_C1298 TCOF1 ([2]; 100 μM in situ 231): 5.6 | isoTOP-ABPP reactivity Q865X6_C67 GLRX5 ([4]; 100 μM in situ 231): 1.4 | isoTOP-ABPP reactivity Q9UMS0_C213 NFU1 ([5]; 100 μM in situ 231): 4.4 | isoTOP-ABPP reactivity P78417_C32 GSTO1 ([3]; 100 μM in situ 231): 19.9

O=C(CCl)NC12CC3CC(CC(C3)C1)C2 [compound 21]
isoTOP-ABPP ratio Q13428_C38 [2]: 1.5 | isoTOP-ABPP ratio Q86SX6_C67 ([4]; 200 μM, insitu, 231): 1.4

O=C(CCl)Nc1cccc2ncccc12 [compound 51]
isoTOP-ABPP ratio Q99497_C106 [1]; 231: 1.4 | isoTOP-ABPP ratio Q13428_C38 [2]: 1.1 | isoTOP-ABPP ratio Q86SX6_C67 ([4]; 200 μM, insitu, 231): 1.0 | isoTOP-ABPP ratio Q9UMS0_C213 [5]: 1.8
